Source: PubChem BioAssay (NCI)
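1) Cells in 96-well plates. 2) Compound, 48 h, 5 concentrations. 3) Linear interpolation between surrounding doses. 4) Unreached endpoint = highest concentration. GI50 = concentration required for 50% inhibition of growth. At the TGI there is no net growth.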

Assays:
Experiment in all cases: NCI anticancer screen, dose series, 48 h
[1] = tested on: OVCAR-8 ovarian
[2] = tested on: MALME-3M melanoma
[3] = tested on: HS 578T breast
[4] = tested on: M14 melanoma
[5] = tested on: EKVX NSCLC
[6] = tested on: MOLT-4 leukemia
[7] = tested on: SK-MEL-5 melanoma
[8] = tested on: UACC-257 melanoma
[9] = tested on: K-562 leukemia
[10] = tested on: SNB-75 CNS

SMILES	TGI [1] [µM]	TGI [2] [µM]	TGI [3] [µM]	TGI [4] [µM]	TGI [5] [µM]	TGI [6] [µM]	TGI [7] [µM]	TGI [8] [µM]	TGI [9] [µM]	TGI [10] [µM]	GI50 [1] [µM]	GI50 [2] [µM]	GI50 [10] [µM]	GI50 [3] [µM]	GI50 [5] [µM]	GI50 [6] [µM]	GI50 [7] [µM]	GI50 [8] [µM]	GI50 [9] [µM]
CC1(O)CC23CC(O)C4(O)C(CC(O)C4(C)C)C(C)(O)C2CCC1C3O (stereo not given)	> 100	> 100	> 100	> 100	> 100	> 100	> 100	> 100	> 100										
CCOC(=O)CCC(NC(=O)c1ccc(NCc2ccc3nc(OC)c(OC)nc3c2)c2ccccc12)C(=O)OCC (stereo not given)	> 100	> 100		> 100	> 100	> 100	> 100	> 100	> 100	> 100									
CCOC(=O)CSc1nc(-c2ccc(Cl)cc2)c(C#N)c(=O)[nH]1	> 100		> 100	> 100	> 100	> 100	> 100	> 100	> 100	> 100									
CC(C)(C)[C@H]1NC(=O)CN1C(=O)OCc1ccccc1	> 100	> 100		> 100	> 100	> 100	> 100	> 100	> 100	> 100									
O=c1[nH]c2ccccc2c(=O)n1/N=C\c1ccccc1O			> 100	> 100	> 100	> 100	> 100	> 100	> 100	> 100									
COC(=O)[C@]1(c2cc3ccccc3[nH]2)CC2CNC1C1OC(C)(C)OC21 (stereo not given in full)	> 100	> 100		> 100	> 100	> 100	> 100	> 100	> 100	> 100									
O=C(c1ccccc1)C1C(c2ccccc2[N+](=O)[O-])N1C1CCCCC1 (stereo not given)	3.97	29.4	49.3	23.9	30.8	7.79	24.4	8.88	8.06										
CSC1=C(C)C(/C=N/Nc2ccc([N+](=O)[O-])cc2)=C(C)N(c2ccccc2)S1(=O)=O	> 100	> 100		> 100	> 100	> 100	> 100	> 100	> 100	> 100									
CCOC(=O)NCC(=O)NCC(=O)NCC(N)=O	> 100	> 100	> 100	> 100	> 100	> 100	> 100	> 100	> 100										
COc1ccccc1-c1cc(=O)c2cccnc2[nH]1	> 100	> 100	> 100	> 100	> 100	> 100	> 100	> 100	> 100										
N#CC(c1cc(Cl)ncn1)c1nc2cc(C(F)(F)F)ccc2s1 (stereo not given)	13.5	17.5		18.7	32.3	> 100	26.2	> 100	> 100	25.4									
Oc1ccccc1/C=N/c1nc(-c2ccccc2)cs1	> 100	> 100	> 100		> 100	74.7	> 100	> 100	68	> 100	42.9	47.2	> 100	39	> 100	25.4	47.6	44.3	19.6
CC(C)C(Nc1c2ccccc2[n+](C)c2ccccc12)C(=O)O (stereo not given)	> 100	> 100		> 100	> 100	> 100	> 100	> 100	> 100	> 100									
COC1=C(OC)C(=O)C(Cc2c(-c3ccccc3)nc3sc(Cl)cn23)=C(C)C1=O	32.9	33.2	44.3	33.7	41.6		29.2	29.9	52.4										
N#Cc1cc2c(n(C3OC(CO)C(O)C(O)C3O)c1=S)CCC2 (stereo not given)	> 100	> 100	> 100	> 100		> 100	> 100	> 100	> 100	> 100									
CCOC(=O)CC1C(C(=O)OCC)=Cn2c([nH]c3cccc4cccc2c43)=C1C(=O)OCC (stereo not given)	> 100			> 100	> 100	> 100	> 100	> 100	> 100	> 100									
